Measurements published in PMC5877965 (Proceedings of the National Academy of Sciences of the …, 2018).

Tests used:
[1] = biological target: all five receptor subtypes; conditions: cited from earlier work
human M2 mAChR = human M2 mAChR (Homo sapiens, UniProt P08172); assay type: binding
Sequence of human M2 mAChR (P08172 whole entry): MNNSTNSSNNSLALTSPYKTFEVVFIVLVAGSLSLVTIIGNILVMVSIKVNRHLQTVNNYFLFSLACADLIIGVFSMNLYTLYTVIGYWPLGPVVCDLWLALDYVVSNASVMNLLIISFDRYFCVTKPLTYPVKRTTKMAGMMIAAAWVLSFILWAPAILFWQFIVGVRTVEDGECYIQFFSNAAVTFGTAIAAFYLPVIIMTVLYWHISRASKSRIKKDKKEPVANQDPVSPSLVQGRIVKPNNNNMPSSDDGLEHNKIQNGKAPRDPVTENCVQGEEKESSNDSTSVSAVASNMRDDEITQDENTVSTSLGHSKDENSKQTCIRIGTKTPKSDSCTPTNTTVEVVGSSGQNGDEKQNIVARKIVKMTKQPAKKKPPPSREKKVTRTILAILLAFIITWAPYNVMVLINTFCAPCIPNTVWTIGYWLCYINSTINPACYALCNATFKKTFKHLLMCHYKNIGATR

Row | SMILES | Kd [1] | allosteric effect on [3H]NMS binding (in words) (human M2 mAChR)
1 | CN1[C@@H]2C[C@@H](OC(=O)[C@H](CO)c3ccccc3)C[C@H]1[C@@H]1O[C@@H]12 [scopolamine] | 0.4 to 2.1 nM | –
2 | CC[N+](CC)(CC)CCOc1cccc(OCC[N+](CC)(CC)CC)c1OCC[N+](CC)(CC)CC [Gallamine, gallamine] | – | substantially reduced the specific binding
3 | COc1nc2sc(C(=O)NC3CC3)c(N)c2c(C)c1Cl [LY2033298] | – | small NAM effect
